As usually defined, the IC50 is the midpoint of a concentration-inhibition curve.

Our source for the IC50 values is US20240199605A1, “SMALL MOLECULAR INHIBITORS OF NF-kB INDUCING KINASE” (Janssen Pharmaceutica NV, priority 2019, published 2024).

Test [1] concerns the target recombinant human NF-kappaB-inducing kinase (NIK/MAP3K14) (Homo sapiens (Human), UniProt Q99558). The experiment in a line: Inhibition of auto-phosphorylation of recombinant human NIK/MAP3K14 (AlphaScreen). The test is classed as biochemical. Particulars: NIK auto-phosphorylation, 5 μM ATP, 1 nM NIK, 2 h at 25° C.; average of values. The protocol: Inhibition of auto-phosphorylation of recombinant human NF-kappaB-inducing kinase (NIK/MAP3K14) activity (AlphaScreen®)
NIK/MAP3K14 auto-phosphorylation activity was measured using the AlphaScreen® (αscreen) format (Perkin Elmer). All compounds tested were dissolved in dimethyl sulfoxide (DMSO) and further dilutions were made in assay buffer. The final DMSO concentration was 0.7% (v/v) in assays. The assay buffer was 50 mM Tris pH 7.5 containing 1 mM EGTA (ethylene glycol tetraacetic acid), 1 mM DTT (dithiothreitol), 0.1 mM Na3VO4, 5 mM MgCl2, and 0.01% Tween® 20. The assays were carried out in 384 well Proxiplates (Perkin Elmer). The incubations consisted of the compound, 5 μM Adenosine-5′-triphosphate (ATP), and 1 nM NIK/MAP3K14. Incubations were initiated by the addition of GST-tagged NIK/MAP3K14 enzyme, carried out for 2 h at 25° C. and terminated by addition of stop buffer containing anti-phospho-IKK Ser176/180 antibody. Protein A Acceptor and Glutathione-Donor beads were added before reading using an EnVision® Multilabel Plate Reader (Perkin Elmer). […] IC50's were determined by fitting a sigmoidal curve to % inhibition of control versus Log10 compound concentration.

In test [2] the test system is p-IKKα levels in L363 (NIK translocated multiple myeloma) cells. Nature of the test: Effect of compounds on p-IKKα levels in L363 cells (AlphaLISA SureFire Ultra). The class given is cell-based, human. The following applies: Homo sapiens, L-363, 6 h, BAFF stimulated, MG132, 6 h, average of values, read-out: Assay 2 IC50. The protocol: Effect of Compounds on p-IKKα Levels in L363 (NIK Translocated Multiple Myeloma) Cells
All compounds tested were dissolved and serially diluted in DMSO, 1:3 dilution for 11 points in an Echo compatible plate. 100% DMSO was added to columns 12 and 24 of the plate to serve as high and low signal controls. This compound plate was used to spot 20 nL of compound or DMSO into a Greiner 384 well TC plate (781080). The final DMSO concentration was 0.3% (v/v) in cell assays. Human L363 cells (ATCC) were cultured in RPM11640 medium supplemented with GlutaMax, non-essential amino acids, sodium pyruvate and 10% fetal bovine serum. Cells were routinely maintained at densities of […] at 37° C. in a humidified 5% CO2 atmosphere incubator. Cells were passaged twice a week splitting back to obtain the low density. The day before the assay, cells were washed twice in HBSS (Hank's Balanced Salt Solution), resuspended in Dulbecco's Modified Eagle Medium (DMEM)+0.5% IgG and protease free BSA (Jackson Immuno Research Laboratories), +/−250 ng/ml recombinant human B-cell activating factor (BAFF/BLyS/TNFSF13B) and incubated overnight at 37° C. in a humidified 5% CO2 atmosphere (bulk stimulation with or without BAFF). The next day, the cell concentration was adjusted to 1×10^7 cells/ml in DMEM+/−250 ng/ml BAFF+/−10 μM MG132 and plated at 10 μl/well into compound or DMSO spotted 384 well TC plates. Seeded cells were incubated at 37° C. in a humidified 5% CO2 atmosphere for 6 h. After 6 h, the plates were removed from the incubator and cell lysis was achieved by the addition of 2.5 μl 5× lysis buffer containing protease and phosphatase inhibitors, followed by shaking on a plate shaker at room temperature for 15 min. At the end of this incubation, lysed cells were sequentially treated and incubated with acceptor and donor bead mixes according to the manufacturer's protocol for a 1 plate/2-incubation suspension cell assay (AlphaLISA SureFire Ultra p-IKKa (Ser 176/180) Assay Kit (Perkin Elmer). Plates were read using an EnVision® Multilabel Plate Reader (Perkin Elmer). Within an experiment, a concentration response curve for each compound was run in duplicate. The signal obtained in the test wells was normalized using high signal (BAFF stimulated cells, DMSO, MG132) and low signal (unstimulated cells, DMSO) controls. To determine the IC50, a sigmoidal curve was fitted to the plot of % inhibition versus Log10 compound concentration.
For orientation: Alpha assays give light when donor and acceptor beads are brought close together.

recombinant human NF-kappaB-inducing kinase (NIK/MAP3K14), sequence (Q99558 whole entry): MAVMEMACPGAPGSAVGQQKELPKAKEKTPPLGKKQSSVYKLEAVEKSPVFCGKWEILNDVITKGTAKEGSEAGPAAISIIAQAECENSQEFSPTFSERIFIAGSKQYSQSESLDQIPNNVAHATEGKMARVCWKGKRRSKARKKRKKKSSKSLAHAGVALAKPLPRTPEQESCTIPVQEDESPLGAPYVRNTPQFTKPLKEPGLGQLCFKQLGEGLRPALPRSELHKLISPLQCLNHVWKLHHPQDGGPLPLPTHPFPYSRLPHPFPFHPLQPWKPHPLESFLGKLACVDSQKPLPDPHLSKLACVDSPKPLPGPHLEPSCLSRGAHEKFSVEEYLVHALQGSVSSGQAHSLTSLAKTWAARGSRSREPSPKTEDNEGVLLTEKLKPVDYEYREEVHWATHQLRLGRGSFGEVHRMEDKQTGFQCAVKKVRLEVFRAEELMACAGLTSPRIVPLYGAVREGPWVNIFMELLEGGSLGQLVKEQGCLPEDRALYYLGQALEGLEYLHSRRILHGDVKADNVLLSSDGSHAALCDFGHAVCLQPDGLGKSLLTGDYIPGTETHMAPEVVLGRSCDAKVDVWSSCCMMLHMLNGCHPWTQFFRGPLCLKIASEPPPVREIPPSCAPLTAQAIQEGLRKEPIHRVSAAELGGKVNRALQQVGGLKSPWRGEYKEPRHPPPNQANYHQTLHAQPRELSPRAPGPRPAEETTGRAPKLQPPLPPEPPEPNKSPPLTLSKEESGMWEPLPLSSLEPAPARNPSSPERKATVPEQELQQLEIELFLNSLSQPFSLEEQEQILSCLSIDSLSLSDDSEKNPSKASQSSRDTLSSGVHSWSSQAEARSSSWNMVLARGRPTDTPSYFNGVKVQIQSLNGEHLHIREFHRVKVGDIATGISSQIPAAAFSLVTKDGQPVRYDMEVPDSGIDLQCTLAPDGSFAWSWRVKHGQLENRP

For `Cc1nc(-c2cccc(C#C[C@]3(O)CCN(C)C3=O)c2)nc2c(N)ncnc12` [Example 4, (R)-3-((3-(8-Amino-4-methylpyrimido[5,4-d]pyrimidin-2-yl)phenyl)ethynyl)-3-hydroxy-1-methylpyrrolidin-2-one], the figures for the IC50 in test [1] and in test [2] were 0.8 nM and 5.4 nM, respectively.
In the same order, the values of `Cc1nc(-c2cccc(C#C[C@@]3(O)CCN(C)C3=O)c2)nc2c(N)ncnc12` [Example 5, (S)-3-((3-(8-Amino-4-methylpyrimido[5,4-d]pyrimidin-2-yl)phenyl)ethynyl)-3-hydroxy-1-methylpyrrolidin-2-one] are 230 nM and 1560 nM.
In the same order, the values of `Cc1nc(N)c2nc(-c3cccc(C#C[C@]4(O)CCN(C)C4=O)c3)ccc2n1` [Example 6, (R)-3-((3-(4-Amino-2-methylpyrido[3,2-d]pyrimidin-6-yl)phenyl)ethynyl)-3-hydroxy-1-methylpyrrolidin-2-one] are 0.6 nM and 12 nM.
In the same order, the values of `Cc1nc(N)c2nc(-c3cccc(C#C[C@@]4(O)CCN(C)C4=O)c3)ccc2n1` [Example 7, (S)-3-((3-(4-Amino-2-methylpyrido[3,2-d]pyrimidin-6-yl)phenyl)ethynyl)-3-hydroxy-1-methylpyrrolidin-2-one] are 170 nM and 2300 nM.
Take `Cc1ccc(C#C[C@]2(O)CCN(C)C2=O)cc1-c1nc2c(N)ncnc2s1` [Example 10, (R)-3-((3-(7-Aminothiazolo[5,4-d]pyrimidin-2-yl)-4-methylphenyl)ethynyl)-3-hydroxy-1-methylpyrrolidin-2-one]: the IC50 was at most 0.5 nM in test [1] and 8.1 nM in test [2].
In the same order, the values of `Cc1ccc(C#C[C@@]2(O)CCN(C)C2=O)cc1-c1nc2c(N)ncnc2s1` [Example 11, (S)-3-((3-(7-Aminothiazolo[5,4-d]pyrimidin-2-yl)-4-methylphenyl)ethynyl)-3-hydroxy-1-methylpyrrolidin-2-one] are 83 nM and 2060 nM.
For `CN1CC[C@@](O)(C#Cc2cccc(-c3ncc4ncnc(N)c4n3)c2)C1=O` [Example 13, (R)-3-[2-[3-(4-Aminopyrimido[5,4-d]pyrimidin-6-yl)phenyl]ethynyl]-3-hydroxy-1-methyl-pyrrolidin-2-one], the IC50 in test [1] was at most 0.5 nM; in test [2], 2.8 nM.
As for `Cc1nc(N)c2nc(-c3cccc(C#C[C@]4(O)CCN(C)C4=O)c3)ncc2n1` [Example 14, (R)-3-((3-(8-Amino-6-methylpyrimido[5,4-d]pyrimidin-2-yl)phenyl)ethynyl)-3-hydroxy-1-methylpyrrolidin-2-one], the IC50 in test [1] is at most 0.5 nM; in test [2], 18 nM.
In the same order, the values of `CN1CC[C@@](O)(C#Cc2cccc(-c3cnc4ncnc(N)c4n3)c2)C1=O` [Example 15, (R)-3-[2-[3-(4-Aminopteridin-6-yl)phenyl]ethynyl]-3-hydroxy-1-methyl-pyrrolidin-2-one] are 0.9 nM and 50 nM.
On the same counts, the results for `CN1CC[C@@](O)(C#Cc2cccc(-c3ccc4ncnc(N)c4c3)c2)C1=O` [Example 16, (R)-3-[2-[3-(4-Aminoquinazolin-6-yl)phenyl]ethynyl]-3-hydroxy-1-methyl-pyrrolidin-2-one] are 0.7 nM and 57 nM.
In the same order, the values of `Nc1nccc2cnc(-c3cccc(C#C[C@]4(O)CCn5ccnc54)c3)nc12` [Example 17, (R)-7-[2-[3-(8-Aminopyrido[3,4-d]pyrimidin-2-yl)phenyl]ethynyl]-5,6-dihydropyrrolo[1,2-a]imidazol-7-ol] are at most 0.5 nM and 5.9 nM.
As for `Cc1nnc([C@](C)(O)C#Cc2cccc(-c3ncc4ccnc(N)c4n3)c2)o1` [Example 18, (R)-4-[3-(8-Aminopyrido[3,4-d]pyrimidin-2-yl)phenyl]-2-(5-methyl-1,3,4-oxadiazol-2-yl)but-3-yn-2-ol], the IC50 came to 0.9 nM in test [1] and 61 nM in test [2].
In the same order, the values of `CN1CC[C@@](O)(C#Cc2cccc(N3CCc4ccnc(N)c4C3)c2)C1=O` [Example 20, (R)-3-((3-(8-Amino-3,4-dihydro-2,7-naphthyridin-2(1H)-yl)phenyl)ethynyl)-3-hydroxy-1-methylpyrrolidin-2-one] are 1.2 nM and 55 nM.
In the same order, the values of `CN1CC[C@@](O)(C#Cc2cccc(-c3ccc4c(n3)c(N)nn4C)c2)C1=O` [Example 21, (R)-3-[2-[3-(3-Amino-1-methyl-pyrazolo[4,3-b]pyridin-5-yl)phenyl]ethynyl]-3-hydroxy-1-methyl-pyrrolidin-2-one] are 22 nM and 590 nM.
On the same counts, the results for `CN1CC[C@@](O)(C#Cc2cccc(-c3ccc4[nH]nc(N)c4n3)c2)C1=O` [Example 22, (R)-3-[2-[3-(3-Amino-1H-pyrazolo[4,3-b]pyridin-5-yl)phenyl]ethynyl]-3-hydroxy-1-methyl-pyrrolidin-2-one] are 4.3 nM and 480 nM.
For the compound `Cc1ncnc2ccc(-c3cccc(C#C[C@]4(O)CCN(C)C4=O)c3)nc12` [Example 23, (R)-3-Hydroxy-1-methyl-3-((3-(4-methylpyrido[3,2-d]pyrimidin-6-yl)phenyl)ethynyl)pyrrolidin-2-one], the IC50 in test [1] came out at 10 nM; in test [2], 260 nM.
In the same order, the values of `CCOc1ncnc2ccc(-c3cccc(C#C[C@]4(O)CCN(C)C4=O)c3)nc12` [Example 24, (R)-3-((3-(4-Ethoxypyrido[3,2-d]pyrimidin-6-yl)phenyl)ethynyl)-3-hydroxy-1-methylpyrrolidin-2-one] are 260 nM and 4030 nM.
On the same counts, the results for `CN1CC[C@@](O)(C#Cc2cccc(-c3ccc4ncnc(N(C)C)c4n3)c2)C1=O` [Example 25, (R)-3-((3-(4-(Dimethylamino)pyrido[3,2-d]pyrimidin-6-yl)phenyl)ethynyl)-3-hydroxy-1-methylpyrrolidin-2-one] are 2.1 nM and 180 nM.
On the same counts, the results for `CN1CC[C@@](O)(C#Cc2cccc(-c3ccc4ncnc(N5CCC5)c4n3)c2)C1=O` [Example 26, (R)-3-((3-(4-(Azetidin-1-yl)pyrido[3,2-d]pyrimidin-6-yl)phenyl)ethynyl)-3-hydroxy-1-methylpyrrolidin-2-one] are 1.2 nM and 58 nM.
For `CNc1ncnc2ccc(-c3cccc(C#C[C@]4(O)CCN(C)C4=O)c3)nc12` [Example 27, (R)-3-Hydroxy-1-methyl-3-((3-(4-(methylamino)pyrido[3,2-d]pyrimidin-6-yl)phenyl)ethynyl)pyrrolidin-2-one], the IC50 in test [1] was found to be 7.8 nM; in test [2], 240 nM.
In the same order, the values of `Cc1cc(-c2cccc(C#C[C@]3(O)CCN(C)C3=O)c2)nc2c(N)ncnc12` [Example 28, (R)-3-((3-(4-Amino-8-methylpyrido[3,2-d]pyrimidin-6-yl)phenyl)ethynyl)-3-hydroxy-1-methylpyrrolidin-2-one] are at most 0.5 nM and 0.7 nM.
In the same order, the values of `[2H]c1nc(N)c2nc(-c3cc(C#C[C@]4(O)CCN(C)C4=O)ccc3OC(F)(F)F)ccc2n1` [Example 29, (R)-3-((3-(4-aminopyrido[3,2-d]pyrimidin-6-yl-2-d)-4-(trifluoromethoxy)phenyl)ethynyl)-3-hydroxy-1-methylpyrrolidin-2-one] are 4.1 nM and 45 nM.
